# Laboratory results taken from patent publication US8003327B2, “Methods of screening for risk of proliferative disease and methods for the treatment of proliferative disease” (Duke University, priority 1998, dated 2011).
# Experiments:
# [1] = test system: NT2 cells; assay: Dose response of NT2 cell viability to drugs, trypan blue method; type: cell-based; conditions: for IC50: Homo sapiens, 18 hours, trypan blue, read-out: dose resulting in 50% killing at 18 hours
# Description: Drug treatments: Dose response curves were established for etoposide, vincristine and staurosporine in NT2 cells (FIGS. 3Ai, 3Bi and 3Ci). […] Survival represents the number of drug treated viable cells divided by the number of untreated viable cells and expressed as a percentage. Protection is calculated as the difference in survival between CLN3-overexpressing cells and the vector-transfected control cells. The degree of protection is calculated as the difference in survival between treated CLN3-overexpressing and vector control cells divided by the survival of treated vector control cells. The values are from three separate experiments, each of which was carried out in triplicate (FIGS. 3Aii, 3Bii, and 3Cii).
# [2] = test system: NT2 cells; assay: DNA fragmentation (low molecular weight DNA ladder) in NT2 cells; type: cell-based
# Description: FIG. 4. […] NT2 cells were transiently transfected with CLN3 (lanes 1, 3 and 5) or vector alone (lanes 2, 4 and 6) followed by treatment with either 10 μg/ml etoposide (lanes 1 and 2) or 500 nM staurosporine (lanes 3 and 4) or 1 μg/ml vincristine (lanes 5 and 6). Low molecular weight DNA was extracted and analyzed on a 2% agarose gel in Tris-Borate-EDTA buffer (Rosenbaum et al, Ann. Neurol. 36, 864-870 (1994)).
# A hallmark of apoptosis is the fragmentation of nuclear DNA into nucleosome-sized fragments creating a DNA ladder of 180 bp and its concatamers (Arends M J, et al., Am. J. Pathol. 136: 593-608 (1990)). […] NT2 cells were transiently transfected with CLN3 or vector alone, then treated with the drugs prior to the extraction of low molecular weight DNA (Rosenbaum D M, et al., Ann. Neurol. 36: 864-870 (1994)).
SMILES,"apoptosis induction in NT2 cells ([1]; increasing concentrations, counted at 6, 12, 18 and 24 hour)","optimal concentration for causing apoptosis in NT2 cells ([1]; NT2 cells, dose response curves) [nM]",DNA fragmentation in NT2 cells caused by drug [2],IC50 ([1]; NT2 cells) [µg/mL]
CCCCCCCCCCCCC/C=C/[C@@H](O)[C@H](CO)NC(C)=O [C2-ceramide],effective apoptotic agent,–,–,–
CN[C@@H]1C[C@H]2O[C@@](C)([C@@H]1OC)n1c3ccccc3c3c4c(c5c6ccccc6n2c5c31)C(=O)NC4 [staurosporine],–,500,cause DNA fragmentation,–
COc1cc([C@@H]2c3cc4c(cc3[C@@H](O[C@@H]3O[C@@H]5CO[C@@H](C)O[C@H]5[C@H](O)[C@H]3O)[C@H]3COC(=O)[C@H]23)OCO4)cc(OC)c1O [etoposide],–,–,cause DNA fragmentation,10
CC[C@]1(O)C[C@H]2CN(CCc3c([nH]c4ccccc34)[C@@](C(=O)OC)(c3cc4c(cc3OC)N(C=O)[C@H]3[C@@](O)(C(=O)OC)[C@H](OC(C)=O)[C@]5(CC)C=CCN6CC[C@]43[C@@H]65)C2)C1 [vincristine],–,–,cause DNA fragmentation,1
